For 48 compounds, drug sensitivity score results are on record in the supplement of paper PMC7224384.

The test system of assay [1] is MDA-MB-453. Kind of assay: drug sensitivity score (DSS), in combination with BLU9931 (DSS (weighted AUC score)); higher = more sensitive (stronger viability decrease); extreme values may be limits of the assay. The conditions noted are these: BLU9931 100 nM; 72 h. A digest of the protocol:
(§1)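 Compounds from the FIMM Oncology set were predispensed in singlicate at five 10-fold dilutions (10,000-fold range) on 384-well plates. Each well then received 2000 MDA-MB-453 cells in medium with or without an FGFR4 inhibitor (100 nM final) and was kept at 37 °C, 5% CO2. Cellular ATP was read with CellTiterGlo 2.0 after 72 h and normalised per plate to percent viability from control wells. The drug sensitivity score is a weighted area under a four-parameter logistic fit.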

The test system of assay [2] is MDA-MB-453. Kind of assay: drug sensitivity score (DSS), single agent (DSS (weighted AUC score)); higher = more sensitive (stronger viability decrease); extreme values may be limits of the assay. The conditions noted are these: BLU9931 0 nM; 72 h. The procedure, abridged: as §1

Turning to `COc1cc2c(cc1OC(C)C)[C@H](c1ccc(Cl)cc1)N(c1ccc(N(C)C[C@H]3CC[C@H](N4CCN(C)C(=O)C4)CC3)cc1)C(=O)C2` [NVP-CGM097], the results for the drug sensitivity score in the assay with MDA-MB-453 [1] and in the assay on MDA-MB-453 [2] were 8.5 and 7.9, respectively.

Turning to `CN[C@@H](C)C(=O)N[C@H](C(=O)N1CCC[C@H]1c1nc(C(=O)c2ccc(F)cc2)cs1)C1CCCCC1` [NVP-LCL161], the drug sensitivity score was 8.1 with MDA-MB-453 [1] and 8 with MDA-MB-453 [2].

As to `Cn1c(Nc2ccc(C(F)(F)F)cc2)nc2cc(Oc3ccnc(-c4ncc(C(F)(F)F)[nH]4)c3)ccc21` [NVP-RAF265], the figures for the drug sensitivity score in the assay with MDA-MB-453 [1] and with MDA-MB-453 [2] were 1.1 and 1.7, respectively.

Regarding `CC(=O)c1cc2c(o1)C(=O)c1ccccc1C2=O` [Napabucasin], the drug sensitivity score with MDA-MB-453 [1] and with MDA-MB-453 [2] was 0 throughout.

Take `CC1(C)CCC(c2ccc(Cl)cc2)=C(CN2CCN(c3ccc(C(=O)NS(=O)(=O)c4ccc(N[C@H](CCN5CCOCC5)CSc5ccccc5)c(S(=O)(=O)C(F)(F)F)c4)cc3)CC2)C1` [Navitoclax]: the drug sensitivity score in the assay on MDA-MB-453 [1] is 2.4; with MDA-MB-453 [2] it was 0.3.

With `CN1C(=O)N[C@H](Cc2c[nH]c3c(Cl)cccc23)C1=O` [Necrostatin 2], the drug sensitivity score in the assay with MDA-MB-453 [1] and in the assay with MDA-MB-453 [2] was 0 each time.

On to `O=c1ncn2nc(Sc3ccc(F)cc3F)ccc2c1-c1c(Cl)cccc1Cl` [Neflamapimod], for which the drug sensitivity score in the assay with MDA-MB-453 [1] and in the assay on MDA-MB-453 [2] was 0 throughout.

Consider `COc1nc(N)nc2c1ncn2[C@@H]1O[C@H](CO)[C@@H](O)[C@@H]1O` [Nelarabine], for which the figures for the drug sensitivity score in the assay on MDA-MB-453 [1] and in the assay on MDA-MB-453 [2] were 1.5 and 1.3, respectively.

Turning to `CCOc1cc2ncc(C#N)c(Nc3ccc(OCc4ccccn4)c(Cl)c3)c2cc1NC(=O)/C=C/CN(C)C` [Neratinib], the drug sensitivity score turned out to be 17.9 with MDA-MB-453 [1] and 15.4 in the assay on MDA-MB-453 [2].

For the compound `Cc1cn(-c2cc(NC(=O)c3ccc(C)c(Nc4nccc(-c5cccnc5)n4)c3)cc(C(F)(F)F)c2)cn1` [Nilotinib], the drug sensitivity score with MDA-MB-453 [1] is 1.5; with MDA-MB-453 [2] it was 1.7.

Take `CC1(C)NC(=O)N(c2ccc([N+](=O)[O-])c(C(F)(F)F)c2)C1=O` [Nilutamide]: the drug sensitivity score with MDA-MB-453 [1] and in the assay with MDA-MB-453 [2] was 0 each time.

On to `COC(=O)c1ccc2c(c1)NC(=O)/C2=C(\Nc1ccc(N(C)C(=O)CN2CCN(C)CC2)cc1)c1ccccc1` [Nintedanib], for which the drug sensitivity score in the assay with MDA-MB-453 [1] came out at 1.9; in the assay with MDA-MB-453 [2], 4.7.

Turning to `NC(=O)c1cccc2cn(-c3ccc([C@@H]4CCCNC4)cc3)nc12` [Niraparib], the drug sensitivity score with MDA-MB-453 [1] amounted to 1.3; with MDA-MB-453 [2], 2.3.

For the compound `CC(O)c1cc(C(=O)N[C@@H](C)Cn2ccc(-c3ccc(C#N)c(Cl)c3)n2)n[nH]1` (stereo partly specified) [ODM-201], the values for the drug sensitivity score with MDA-MB-453 [1] and in the assay with MDA-MB-453 [2] were 0.3 and 1.1, respectively.

Take `CC(=O)c1cnc2ccc(-c3cc(Cl)c(O)c(Cl)c3)nc2c1N[C@H]1CC[C@H](CN(C)C)CC1` [OTS167]: the figures for the drug sensitivity score in the assay with MDA-MB-453 [1] and in the assay on MDA-MB-453 [2] were 15.9 and 17.4, respectively.

On to `O=C(c1cc(Cc2n[nH]c(=O)c3ccccc23)ccc1F)N1CCN(C(=O)C2CC2)CC1` [Olaparib], for which the drug sensitivity score with MDA-MB-453 [1] is 0.5; with MDA-MB-453 [2], 1.7.

On to `C=CC(=O)Nc1cccc(Oc2nc(Nc3ccc(N4CCN(C)CC4)cc3)nc3ccsc23)c1` [Olmutinib], for which the drug sensitivity score in the assay on MDA-MB-453 [1] and in the assay with MDA-MB-453 [2] was 0.7 throughout.

Regarding `COC(=O)C[C@](O)(CCCC(C)(C)O)C(=O)O[C@@H]1C(OC)=C[C@]23CCCN2CCc2cc4c(cc2[C@H]13)OCO4` [Omacetaxine], the drug sensitivity score stood at 20.5 in the assay with MDA-MB-453 [1] and 22.1 with MDA-MB-453 [2].

For the compound `CC1(C)CC[C@]2(NC(=O)C(C)(F)F)CC[C@]3(C)[C@H](C(=O)C=C4[C@@]5(C)C=C(C#N)C(=O)C(C)(C)[C@@H]5CC[C@]43C)[C@@H]2C1` [Omaveloxolone], the drug sensitivity score in the assay on MDA-MB-453 [1] was 13.5; in the assay on MDA-MB-453 [2], 14.3.

For `COc1ncc(-c2ccc3nccc(-c4ccnnc4)c3c2)cc1NS(=O)(=O)c1ccc(F)cc1F` [Omipalisib], the drug sensitivity score with MDA-MB-453 [1] came to 25.1; in the assay with MDA-MB-453 [2], 23.

Consider `CC(C)c1cc(C(=O)N2Cc3ccc(CN4CCN(C)CC4)cc3C2)c(O)cc1O` [Onalespib], for which the drug sensitivity score with MDA-MB-453 [1] worked out at 16.4; with MDA-MB-453 [2], 17.

Consider `COC[C@H](NC(=O)c1cnc(C)s1)C(=O)N[C@@H](COC)C(=O)N[C@@H](Cc1ccccc1)C(=O)[C@@]1(C)CO1` [Oprozomib], for which the drug sensitivity score was found to be 12.3 with MDA-MB-453 [1] and 14.8 in the assay with MDA-MB-453 [2].

For the compound `CNC(=O)c1ccc2cc([C@@]3(O)CCn4cncc43)ccc2c1` [Orteronel], the drug sensitivity score in the assay with MDA-MB-453 [1] and with MDA-MB-453 [2] was 0 each time.

In the case of `C=CC(=O)Nc1cc(Nc2nccc(-c3cn(C)c4ccccc34)n2)c(OC)cc1N(C)CCN(C)C` [Osimertinib], the drug sensitivity score in the assay with MDA-MB-453 [1] was 10.4; in the assay with MDA-MB-453 [2], 8.

As for `O=C(O)C(=O)O.[NH-][C@@H]1CCCC[C@H]1[NH-].[Pt+2]` [Oxaliplatin], the values for the drug sensitivity score in the assay with MDA-MB-453 [1] and in the assay with MDA-MB-453 [2] were 7 and 8.2, respectively.

For `C=CCc1cccc(/C=N/NC(=O)CN2CCN(Cc3ccccc3)CC2)c1O` [PAC-1], the drug sensitivity score stood at 4.9 in the assay on MDA-MB-453 [1] and 4.4 in the assay on MDA-MB-453 [2].

Regarding `O=C(Nc1cccnc1)N1CCC(Cc2cccc(Oc3ccc(C(F)(F)F)cn3)c2)CC1` [PF-3845], the drug sensitivity score with MDA-MB-453 [1] was 2.2; with MDA-MB-453 [2], 1.8.

Turning to `COc1ccccc1S(=O)(=O)Nc1ccc2c(c1)CN(C)C(=O)N2` [PFI-1], the figures for the drug sensitivity score in the assay on MDA-MB-453 [1] and in the assay with MDA-MB-453 [2] were 8.4 and 8.2, respectively.

For the compound `CN1CCN(c2cc(C(=O)Nc3ccc4c(c3)-c3c(c(C(N)=O)nn3-c3ccc(F)cc3)CC4)c(Cl)cn2)CC1` [PHA 408], the drug sensitivity score stood at 3.4 in the assay on MDA-MB-453 [1] and 4.9 with MDA-MB-453 [2].

With `O=C(Nc1cc(Cl)cc2c1[nH]c1cnccc12)c1cccnc1` [PS-1145], the drug sensitivity score with MDA-MB-453 [1] came to 0.3; with MDA-MB-453 [2], 0.

For `COc1cc(Br)c(Nc2nc(-c3c(C)nc4ncccn34)cs2)c(Br)c1` [PTC-209], the drug sensitivity score with MDA-MB-453 [1] was found to be 2; in the assay with MDA-MB-453 [2] it was 3.2.

Turning to `CC(=O)O[C@H]1C(=O)[C@@]2(C)[C@H]([C@H](OC(=O)c3ccccc3)[C@]3(O)C[C@H](OC(=O)[C@H](O)[C@@H](NC(=O)c4ccccc4)c4ccccc4)C(C)=C1C3(C)C)[C@]1(OC(C)=O)CO[C@@H]1C[C@@H]2O` [Paclitaxel], the drug sensitivity score in the assay with MDA-MB-453 [1] is 15.2; in the assay with MDA-MB-453 [2], 18.3.

`C1=N/C2=N/c3ccc(OCCN4CCCC4)c(c3)COC/C=C/COCc3cccc(c3)C(=C1)N2` [Pacritinib]: the values for the drug sensitivity score in the assay with MDA-MB-453 [1] and with MDA-MB-453 [2] were 10 and 8.3, respectively.

With `CC(=O)c1c(C)c2cnc(Nc3ccc(N4CCNCC4)cn3)nc2n(C2CCCC2)c1=O` [Palbociclib], the figures for the drug sensitivity score in the assay with MDA-MB-453 [1] and in the assay with MDA-MB-453 [2] were 4.8 and 2.5, respectively.

As to `COc1ccc(COc2cc3oc(=O)c4cc(C(C)O)ccc4c3cc2OC)cc1` (stereo unspecified) [Palomid-529], the drug sensitivity score was 0 in the assay on MDA-MB-453 [1] and 2 with MDA-MB-453 [2].

Regarding `Cc1[nH]c2ccccc2c1CCNCc1ccc(/C=C/C(=O)NO)cc1` [Panobinostat], the drug sensitivity score came out at 22.4 in the assay on MDA-MB-453 [1] and 22.2 in the assay with MDA-MB-453 [2].

For the compound `Cc1ccc(Nc2nccc(N(C)c3ccc4c(C)n(C)nc4c3)n2)cc1S(N)(=O)=O` [Pazopanib], the figures for the drug sensitivity score with MDA-MB-453 [1] and with MDA-MB-453 [2] were 0 and 2.3, respectively.

As for `Nc1nc2[nH]cc(CCc3ccc(C(=O)N[C@@H](CCC(=O)O)C(=O)O)cc3)c2c(=O)[nH]1` [Pemetrexed], the results for the drug sensitivity score in the assay on MDA-MB-453 [1] and with MDA-MB-453 [2] were 1.8 and 5.4, respectively.

As to `OC[C@H]1O[C@@H](n2cnc3c2N=CNC[C@H]3O)C[C@@H]1O` [Pentostatin], the drug sensitivity score was 0 in the assay on MDA-MB-453 [1] and 1 with MDA-MB-453 [2].

On to `CCCCCCCCCCCCCCCCCCOP(=O)([O-])OC1CC[N+](C)(C)CC1` [Perifosine], for which the drug sensitivity score in the assay with MDA-MB-453 [1] and in the assay on MDA-MB-453 [2] was 0 each time.

With `NS(=O)(=O)OC[C@@H]1C[C@@H](n2ccc3c(N[C@H]4CCc5ccccc54)ncnc32)C[C@@H]1O` [Pevonedistat], the drug sensitivity score is 3.3 in the assay on MDA-MB-453 [1] and 7 with MDA-MB-453 [2].

As to `FC(F)(F)c1ccc(CNc2ccc(Cc3c[nH]c4ncc(Cl)cc34)cn2)cn1` [Pexidartinib], the figures for the drug sensitivity score with MDA-MB-453 [1] and in the assay on MDA-MB-453 [2] were 0.1 and 1.2, respectively.

As for `CS(=O)(=O)N1CCN(Cc2cc3nc(-c4cccc5[nH]ncc45)nc(N4CCOCC4)c3s2)CC1` [Pictilisib], the drug sensitivity score is 17.4 in the assay on MDA-MB-453 [1] and 16.6 in the assay with MDA-MB-453 [2].

In the case of `CC[C@@H]1C(=O)OC[C@@H]1Cc1cncn1C` [Pilocarpine], the drug sensitivity score was determined as 0.2 in the assay with MDA-MB-453 [1] and 1.2 with MDA-MB-453 [2].

Consider `CC(C)N(C[C@H]1O[C@@H](n2cnc3c(N)ncnc32)[C@H](O)[C@@H]1O)[C@H]1C[C@@H](CCc2nc3cc(C(C)(C)C)ccc3[nH]2)C1` [Pinometostat], for which the drug sensitivity score in the assay on MDA-MB-453 [1] and with MDA-MB-453 [2] was 0 throughout.

As for `Cc1ccc(=O)n(-c2ccccc2)c1` [Pirfenidone], the drug sensitivity score in the assay with MDA-MB-453 [1] and in the assay with MDA-MB-453 [2] was 0 each time.

`NCCNc1ccc(NCCN)c2c1C(=O)c1ccncc1C2=O` [Pixantrone]: the drug sensitivity score in the assay on MDA-MB-453 [1] and in the assay with MDA-MB-453 [2] was 1 throughout.

As for `c1cc(CN2CCCNCCNCCCNCC2)ccc1CN1CCCNCCNCCCNCC1` [Plerixafor], the drug sensitivity score in the assay on MDA-MB-453 [1] and with MDA-MB-453 [2] was 0 each time.
